Where a name gives a salt, the structure may show the parent alone.

These results are taken from patent US11787802B2, “Dihydrobenzimidazolones for medical treatment” (C4 Therapeutics, Inc., priority 2017, dated 2023).

This assay has as its target hCereblon(M1-L442)_hDDB1(M1-H1140) (Homo sapiens (Human), UniProt Q96SW2). The assay can be described thus: Fluorescence direct binding protocol (tryptophan fluorescence titration). Particulars: fluorescence titration at 20° C., excited at 280 nm, recorded at 340 nm; protein 5.0 E−8 M; assay buffer 50 mM Hepes 7.4 200 mM NaCl; read-out: Fluorescence h-Cereblon_DDB1 Mean Kd_EQ. Here is the method: Fluorescence Direct Binding Protocol
Determination of the affinities of compounds to protein containing one or more tryptophan is measurable by monitoring the fluorescence emission in direct mode. The measurements depending on the protein available amounts are performed either manually in a cuvette on ISS-PC1 photon counting spectrofluorometer or automatically in well plates on a fluorescence plate reader device. Fluorescence titrations are performed at 20° C. in the chosen binding assay buffer by using a defined constant protein concentration against ligand concentration variations. Small aliquots of known ligand concentration solubilized in DMSO were added and the fluorescence, excited at 280 nm, was recorded at 340 nm. The fluorescence intensity was corrected for protein dilution and for the filter effect (Birdsall et al.^69). The corrected fluorescence intensity was plotted against the ligand concentration and fitted using a four-parameter sigmoidal function, from which the equilibrium dissociation constant Kd was computed using the law of mass action assuming a 1:1 protein-ligand complex (Eftink, 1997^70).
Process • 1) Optimization of measurement parameters to minimize protein consumption and to minimize the dilution effect and the DMSO content • 2) Titration measurements of the protein against ligand by at least 12 titration steps to obtain a good s-curve fit • 3) Repeat the same titration measurements with the ligand alone to enable correction • 4) Check the stability of the protein once by titration against DMSO alone • 5) Determination of the molar extinction coefficients of the ligand at 280 and 340 nm with help of an UV-spectrophotometer • 6) Use Excel template for the correction of the measured raw data • 7) Use GraphPad Prism software for the quadratic binding fit and the KD evaluation.

Chain of hCereblon(M1-L442)_hDDB1(M1-H1140) (Q96SW2 whole entry): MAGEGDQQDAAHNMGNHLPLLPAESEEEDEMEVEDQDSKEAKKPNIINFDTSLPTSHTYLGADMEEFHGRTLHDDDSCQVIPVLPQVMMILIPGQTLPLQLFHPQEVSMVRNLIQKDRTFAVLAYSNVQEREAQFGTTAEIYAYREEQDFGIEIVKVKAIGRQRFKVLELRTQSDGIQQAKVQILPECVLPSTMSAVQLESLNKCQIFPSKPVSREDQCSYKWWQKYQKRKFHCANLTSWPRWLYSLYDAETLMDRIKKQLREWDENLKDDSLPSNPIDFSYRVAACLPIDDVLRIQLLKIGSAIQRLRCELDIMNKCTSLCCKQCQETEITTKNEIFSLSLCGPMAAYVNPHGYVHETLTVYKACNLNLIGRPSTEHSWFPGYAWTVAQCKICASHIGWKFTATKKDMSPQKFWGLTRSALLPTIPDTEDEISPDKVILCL
Chain of hCereblon(M1-L442)_hDDB1(M1-H1140) (Q16531 whole entry partner): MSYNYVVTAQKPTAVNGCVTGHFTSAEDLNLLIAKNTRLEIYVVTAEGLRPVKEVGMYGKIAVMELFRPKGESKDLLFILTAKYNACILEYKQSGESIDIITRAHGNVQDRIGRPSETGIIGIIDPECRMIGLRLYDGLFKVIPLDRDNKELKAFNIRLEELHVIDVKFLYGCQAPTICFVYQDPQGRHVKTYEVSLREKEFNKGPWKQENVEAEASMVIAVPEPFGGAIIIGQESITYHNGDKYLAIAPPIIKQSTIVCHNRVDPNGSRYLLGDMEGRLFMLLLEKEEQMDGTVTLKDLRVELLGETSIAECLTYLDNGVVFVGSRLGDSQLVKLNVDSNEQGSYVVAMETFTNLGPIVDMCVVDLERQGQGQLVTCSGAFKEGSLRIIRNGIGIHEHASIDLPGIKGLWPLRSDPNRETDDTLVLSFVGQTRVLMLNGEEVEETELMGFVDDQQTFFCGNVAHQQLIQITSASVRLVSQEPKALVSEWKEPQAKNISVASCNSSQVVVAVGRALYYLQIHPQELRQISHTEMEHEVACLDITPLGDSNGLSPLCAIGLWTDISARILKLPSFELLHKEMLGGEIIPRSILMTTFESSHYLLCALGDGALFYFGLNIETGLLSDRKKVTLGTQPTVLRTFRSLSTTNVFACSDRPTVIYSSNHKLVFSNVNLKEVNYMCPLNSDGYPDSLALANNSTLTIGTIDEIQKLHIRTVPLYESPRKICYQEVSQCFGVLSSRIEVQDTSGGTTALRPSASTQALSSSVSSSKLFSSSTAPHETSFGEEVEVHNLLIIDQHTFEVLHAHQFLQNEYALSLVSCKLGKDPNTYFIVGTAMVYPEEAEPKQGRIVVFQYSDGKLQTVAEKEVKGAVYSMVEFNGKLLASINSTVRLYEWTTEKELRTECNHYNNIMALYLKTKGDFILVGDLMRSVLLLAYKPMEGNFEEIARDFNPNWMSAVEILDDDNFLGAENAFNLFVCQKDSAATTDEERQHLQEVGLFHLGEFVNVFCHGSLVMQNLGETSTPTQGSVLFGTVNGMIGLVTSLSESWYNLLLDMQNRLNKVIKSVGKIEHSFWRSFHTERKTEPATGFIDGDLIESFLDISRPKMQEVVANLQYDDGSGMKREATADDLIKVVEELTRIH

`O=c1[nH]c2ccc(NC3CCN(Cc4ccccc4)CC3)cc2[nH]1` [Example 152, 5-((1-Benzylpiperidin-4-yl)amino)-1,3-dihydro-2H-benzo[d]imidazol-2-one]: the Kd was determined as 21 nM.

With `O=c1[nH]c2ccc(-n3c(CO)nc4ccccc43)cc2[nH]1` [Example 61, 5-[2-(Hydroxymethyl)benzimidazol-1-yl]-1,3-dihydrobenzimidazol-2-one], the Kd was 29 nM.

As to `CNC(=O)CCc1nc2ccccc2n1-c1ccc2[nH]c(=O)[nH]c2c1` [Example 81, N-Methyl-3-[1-(2-oxo-1,3-dihydrobenzimidazol-5-yl)benzimidazol-2-yl]propanamide], the Kd was determined as 4 nM.

In the case of `CNC(=O)c1cccc2c1CCN2C(=O)Nc1ccc2[nH]c(=O)[nH]c2c1` [Example 93, N4-Methyl-N1-(2-oxo-2,3-dihydro-1H-benzo[d]imidazol-5-yl)indoline-1,4-dicarboxamide], the Kd was 10 nM.

Turning to `Cn1c(=O)n(C)c2cc(Nc3ccccc3N)ccc21` [Example 50, 5-((2-Aminophenyl)amino)-1,3-dimethyl-1,3-dihydro-2H-benzo[d]imidazol-2-one], the Kd turned out to be 11 nM.

For `O=c1[nH]c2ccc(-c3ccc(F)cc3F)cc2[nH]1` [Example 38, 5-(2,4-Difluoro-phenyl)-1,3-dihydro-benzoimidazol-2-one], the Kd came out at 82 nM.

In the case of `CC(=O)N1CCN(c2ccc3[nH]c(=O)[nH]c3c2)CC1` [Example 62, 5-(4-Acetylpiperazin-1-yl)-1,3-dihydro-2H-benzo[d]imidazol-2-one], the Kd is under 1 nM.

For `O=C(Nc1ccccc1)c1cnc2[nH]c(=O)[nH]c2c1` [Example 67, 2-Oxo-N-phenyl-2,3-dihydro-1H-imidazo[4,5-b]pyridine-6-carboxamide], the Kd was determined as 5 nM.

Regarding `CC(=O)Nc1ccc(C(=O)Nc2ccc3[nH]c(=O)[nH]c3c2)cc1` [Example 74, 4-Acetamido-N-(2-oxo-2,3-dihydro-1H-benzo[d]imidazol-5-yl)benzamide], the Kd was found to be 2 nM.

Consider `O=C(c1cnc2[nH]c(=O)[nH]c2c1)N1CCc2ccccc21` [Example 55, 6-(Indoline-1-carbonyl)-1,3-dihydro-2H-imidazo[4,5-b]pyridin-2-one], for which the Kd was under 1 nM.

Take `COc1cnccc1C(=O)Nc1ccc2[nH]c(=O)[nH]c2c1` [Example 132, 3-Methoxy-N-(2-oxo-2,3-dihydro-1H-benzo[d]imidazol-5-yl)isonicotinamide]: the Kd is under 1 nM.

Turning to `Nc1ccc2c(c1)CCN2c1ccc2[nH]c(=O)[nH]c2c1` [Example 140, 5-(5-Aminoindolin-1-yl)-1,3-dihydro-2H-benzo[d]imidazol-2-one hydrochloride], the Kd stood at 168 nM.

`CCc1nc2cc(C(=O)NCCCCCNC(=O)C[C@@H]3N=C(c4ccc(Cl)cc4)c4c(sc(C)c4C)-n4c(C)nnc43)ccc2n1-c1ccc2[nH]c(=O)[nH]c2c1` [Example A, N-(5-(2-((6S)-4-(4-chlorophenyl)-2,3,9-trimethyl-6H-thieno[3,2-f][1,2,4]triazolo[4,3-a][1,4]diazepin-6-yl)acetamido)pentyl)-2-ethyl-2′-oxo-2′,3′-dihydro-1′H-[1,5′-bibenzo[d]imidazole]-5-carboxamide]: the Kd was determined as 55 nM.

As for `O=C1c2ccc(Br)cc2CN1c1ccc2[nH]c(=O)[nH]c2c1` [Example 110, 5-(5-Bromo-1-oxo-isoindolin-2-yl)-1,3-dihydrobenzimidazol-2-one], the Kd came to 29 nM.

`CNC(=O)c1ccc2c(c1)nc(C1CCC(OC)CC1)n2-c1ccc2[nH]c(=O)[nH]c2c1` (centres unmarked) [Example 131, 2-(4-Methoxycyclohexyl)-N-methyl-2′-oxo-2′,3′-dihydro-1′H-[1,5′-bibenzo[d]imidazole]-5-carboxamide]: the Kd was 10 nM.

Consider `NS(=O)(=O)c1ccc(C(=O)Nc2ccc3[nH]c(=O)[nH]c3c2)cc1` [Example 100, N-(2-Oxo-2,3-dihydro-1H-benzo[d]imidazol-5-yl)-4-sulfamoylbenzamide], for which the Kd was found to be 29 nM.

With `COC(=O)c1ccc(Nc2ccc3[nH]c(=O)[nH]c3c2)nc1` [Example 153, Methyl 6-((2-oxo-2,3-dihydro-1H-benzo[d]imidazol-5-yl)amino)nicotinate], the Kd turned out to be 16 nM.

Turning to `CC(=O)N1CCC(NC(=O)c2ccc3[nH]c(=O)[nH]c3c2)CC1` [Example 23, N-(1-Acetylpiperidin-4-yl)-2-oxo-2,3-dihydro-1H-benzo[d]imidazole-5-carboxamide], the Kd is 3 nM.

`O=c1[nH]c2ccc(-c3cccnc3)cc2[nH]1` [Example 19, 5-(Pyridin-3-yl)-1H-benzo[d]imidazol-2(3H)-one]: the Kd was 7 nM.

`CC(=O)Nc1cccc(C(=O)Nc2ccc3[nH]c(=O)[nH]c3c2)c1` [Example 75, 3-Acetamido-N-(2-oxo-2,3-dihydro-1H-benzo[d]imidazol-5-yl)benzamide]: the Kd turned out to be 7 nM.

Take `CC(=O)Nc1ccc(NC(=O)Nc2ccc3[nH]c(=O)[nH]c3c2)cc1` [Example 101, N-(4-(3-(2-oxo-2,3-dihydro-1H-benzo[d]imidazol-5-yl)ureido)phenyl)acetamide]: the Kd was determined as 14 nM.

For the molecule `CCOC(=O)c1ccc(NS(=O)(=O)c2ccc3[nH]c(=O)[nH]c3c2)cc1` [Example 43, Ethyl 4-((2-oxo-2,3-dihydro-1H-benzo[d]imidazole)-5-sulfonamido)benzoate], the Kd is 100 nM.

Turning to `O=C(c1ccc2[nH]c(=O)[nH]c2c1)N1CCCc2ccccc21` [Example 97, 5-(1,2,3,4-Tetrahydroquinoline-1-carbonyl)-1,3-dihydro-2H-benzo[d]imidazol-2-one], the Kd is 9 nM.

Turning to `CC(=O)Nc1ccc2c(c1)CCN2c1ccc2[nH]c(=O)[nH]c2c1` [Example 141, N-(1-(2-Oxo-2,3-dihydro-1H-benzo[d]imidazol-5-yl)indolin-5-yl)acetamide], the Kd was found to be 53 nM.

In the case of `CN(C)C(=O)c1ccc2c(c1)nc(-c1cc(-c3cncn3C)nc3ccccc13)n2-c1ccc2[nH]c(=O)[nH]c2c1` [Example 18, N,N-Dimethyl-2-(2-(1-methyl-1H-imidazol-5-yl)quinolin-4-yl)-2′-oxo-2′,3′-dihydro-1′H-[1,5′-bibenzo[d]imidazole]-5-carboxamide], the Kd stood at 16 nM.

In the case of `COC(=O)c1ccc2c(c1)CCN2C(=O)Nc1ccc2[nH]c(=O)[nH]c2c1` [Example 92, Methyl 1-((2-oxo-2,3-dihydro-1H-benzo[d]imidazol-5-yl)carbamoyl)indoline-5-carboxylate], the Kd was 33 nM.

In the case of `CNC(=O)c1cccc2c1nc(C(C)C)n2-c1ccc2[nH]c(=O)[nH]c2c1` [Example 60, 2-Isopropyl-N-methyl-2′-oxo-2′,3′-dihydro-1′H-[1,5′-bibenzo[d]imidazole]-4-carboxamide], the Kd was found to be 47 nM.

As to `COC(=O)c1cccc2c1CCN2C(=O)Nc1ccc2[nH]c(=O)[nH]c2c1` [Example 89, Methyl 1-((2-oxo-2,3-dihydro-1H-benzo[d]imidazol-5-yl)carbamoyl)indoline-4-carboxylate], the Kd was 25 nM.

`O=C(NC1CCN(Cc2ccccc2)CC1)c1ccc2[nH]c(=O)[nH]c2c1` [Example 139, N-(1-Benzylpiperidin-4-yl)-2-oxo-2,3-dihydro-1H-benzo[d]imidazole-5-carboxamide]: the Kd came out at 4 nM.
